Test results published in ChEMBL document CHEMBL1201862, “PubChem BioAssay data set” (2004).
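How tested: cells in 96-well plates exposed to compound for 48 hours at five concentrations. GI50 marks 50% less growth.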 Activity calls are given as the source filed them. Cut-off read from the data, not from the text of the source: active = GI50 up to about 1.1 µM and inactive = higher.

Experiments:
Experiment in all cases: NCI-60 cell line screen, 48 h
[1] = system: SNB-78
[2] = system: CAKI-1
[3] = system: TK-10
[4] = system: KM12
[5] = system: HT-29
[6] = system: SK-MEL-28
[7] = system: A498
[8] = system: SNB-19
[9] = system: EKVX
[10] = system: RXF 393
[11] = system: UACC-257
[12] = system: SK-OV-3
[13] = system: HCT-116
[14] = system: ACHN
[15] = system: HCT-15
[16] = system: HOP-62
[17] = system: SK-MEL-2
[18] = system: HL-60
[19] = system: LXFL 529
[20] = system: K562
[21] = system: MOLT-4
[22] = system: SW-620
[23] = system: SN12C
[24] = system: XF498
[25] = system: M14
[26] = system: CCRF-CEM
[27] = system: A549
[28] = system: SK-MEL-5
[29] = system: HOP-18
[30] = system: LOX IMVI
[31] = system: IGROV-1
[32] = system: NCI-H460
[33] = system: DLD-1
[34] = system: 786-0
[35] = system: M19-MEL
[36] = system: UACC-62
[37] = system: COLO 205
[38] = system: KM-20L2
[39] = system: OVCAR-4
[40] = system: OVCAR-8
[41] = system: DMS-114
[42] = system: NCI-H226
[43] = system: OVCAR-3
[44] = system: UO-31
[45] = system: SF-539
[46] = system: SF-295
[47] = system: NCI-H23
[48] = system: OVCAR-5
[49] = system: SNB-75
[50] = system: Malme-3M
[51] = system: DMS-273
[52] = system: RPMI-8226
[53] = system: NCI-H522
[54] = system: SF-268
[55] = system: HOP-92
[56] = system: U-251
[57] = system: HCC 2998
[58] = system: NCI/ADR-RES
[59] = system: MCF7

Structure (SMILES): CC(=O)OC1C[C@H]2C(OC(=O)c3ccccc3)C3C4(OC(C)=O)COC4C[C@H](OC(C)=O)[C@@]3(C)C(OC(C)=O)[C@H](OC(C)=O)C(=C1C)C2(C)C (some centres not stated)
- GI50 [1]: 37.9 µM (inactive)
- GI50 [2]: 13.5 µM (inactive)
- GI50 [3]: 25.7 µM (inactive)
- GI50 [4]: 59.4 µM (inactive)
- GI50 [5]: 49.3 µM (inactive)
- GI50 [6]: > 100 µM (inactive)
- GI50 [7]: 24.4 µM (inactive)
- GI50 [8]: 24.2 µM (inactive)
- GI50 [9]: 50.7 µM (inactive)
- GI50 [10]: 16.2 µM (inactive)
- GI50 [11]: 58.6 µM (inactive)
- GI50 [12]: 34.1 µM (inactive)
- GI50 [13]: 40 µM (inactive)
- GI50 [14]: 21 µM (inactive)
- GI50 [15]: 47 µM
- GI50 [16]: 40 µM (inactive)
- GI50 [17]: 33.3 µM (inactive)
- GI50 [18]: 16.7 µM (inactive)
- GI50 [19]: 22.3 µM (inactive)
- GI50 [20]: 23.8 µM (inactive)
- GI50 [21]: 20.1 µM (inactive)
- GI50 [22]: 57.9 µM (inactive)
- GI50 [23]: 51.2 µM (inactive)
- GI50 [24]: 19.8 µM (inactive)
- GI50 [25]: 23.2 µM (inactive)
- GI50 [26]: 36.7 µM (inactive)
- GI50 [27]: 31.2 µM (inactive)
- GI50 [28]: 26.3 µM (inactive)
- GI50 [29]: 20.1 µM (inactive)
- GI50 [30]: 40.9 µM (inactive)
- GI50 [31]: 41.8 µM (inactive)
- GI50 [32]: 35.5 µM (inactive)
- GI50 [33]: 32.7 µM (inactive)
- GI50 [34]: 35.9 µM (inactive)
- GI50 [35]: 57.9 µM (inactive)
- GI50 [36]: 77.1 µM (inactive)
- GI50 [37]: 42.7 µM (inactive)
- GI50 [38]: 59 µM (inactive)
- GI50 [39]: 36.7 µM (inactive)
- GI50 [40]: 41.2 µM (inactive)
- GI50 [41]: 22.2 µM (inactive)
- GI50 [42]: 34.1 µM (inactive)
- GI50 [43]: 64.7 µM (inactive)
- GI50 [44]: 24.9 µM (inactive)
- GI50 [45]: 50 µM (inactive)
- GI50 [46]: 33.5 µM (inactive)
- GI50 [47]: 52.8 µM (inactive)
- GI50 [48]: > 100 µM (inactive)
- GI50 [49]: 14.3 µM (inactive)
- GI50 [50]: 71.8 µM (inactive)
- GI50 [51]: 24.9 µM (inactive)
- GI50 [52]: 20.4 µM (inactive)
- GI50 [53]: 20.4 µM (inactive)
- GI50 [54]: 24.9 µM (inactive)

Structure (SMILES): O=c1cc[nH]c(=O)[nH]1 [URACIL]
- GI50 [1]: 475 µM (inactive)
- GI50 [55]: 311 µM (inactive)
- GI50 [2]: 307 µM (inactive)
- GI50 [4]: 237 µM (inactive)
- GI50 [5]: 509 µM (inactive)
- GI50 [6]: 327 µM (inactive)
- GI50 [7]: 6.82 µM (inactive)
- GI50 [8]: 431 µM (inactive)
- GI50 [56]: 370 µM (inactive)
- GI50 [9]: 294 µM (inactive)
- GI50 [10]: 316 µM (inactive)
- GI50 [11]: 804 µM (inactive)
- GI50 [57]: 322 µM (inactive)
- GI50 [12]: 813 µM (inactive)
- GI50 [13]: 261 µM (inactive)
- GI50 [15]: 798 µM
- GI50 [16]: 340 µM (inactive)
- GI50 [17]: 393 µM (inactive)
- GI50 [18]: 581 µM (inactive)
- GI50 [20]: 465 µM (inactive)
- GI50 [21]: 550 µM (inactive)
- GI50 [22]: 361 µM (inactive)
- GI50 [23]: 502 µM (inactive)
- GI50 [24]: 4.23 µM (inactive)
- GI50 [26]: 318 µM (inactive)
- GI50 [27]: 435 µM (inactive)
- GI50 [28]: 177 µM (inactive)
- GI50 [29]: > 1000 µM (inactive)
- GI50 [30]: 375 µM (inactive)
- GI50 [31]: > 828 µM (inactive)
- GI50 [32]: 305 µM (inactive)
- GI50 [33]: 532 µM (inactive)
- GI50 [35]: 279 µM (inactive)
- GI50 [36]: 330 µM (inactive)
- GI50 [37]: 187 µM (inactive)
- GI50 [38]: 426 µM (inactive)
- GI50 [39]: > 656 µM (inactive)
- GI50 [40]: 527 µM (inactive)
- GI50 [41]: 553 µM (inactive)
- GI50 [42]: 329 µM (inactive)
- GI50 [43]: 667 µM (inactive)
- GI50 [44]: 1000 µM (inactive)
- GI50 [45]: 378 µM (inactive)
- GI50 [46]: 382 µM (inactive)
- GI50 [58]: > 562 µM (inactive)
- GI50 [59]: 398 µM (inactive)
- GI50 [47]: 147 µM (inactive)
- GI50 [48]: > 746 µM (inactive)
- GI50 [49]: 350 µM (inactive)
- GI50 [51]: 403 µM (inactive)
- GI50 [52]: > 946 µM (inactive)
- GI50 [53]: 371 µM (inactive)
- GI50 [54]: 578 µM (inactive)
